Numbers after ± are expanded uncertainties.
Experiments:
[1] = 101.33 kPa, Liquid
[2] = refractive index (Na D-line) (dimensionless); details: 101.33 kPa, Liquid, Standard Abbe refractometry
[3] = mn = molality of the nth substance listed, in mol/kg; details: 101 kPa, Liquid

C[S+](C)[O-] [dimethyl sulfoxide]
Details	mass density, 288.15 K [kg/m3]	mass density, 298.15 K [kg/m3]	mass density, 308.15 K [kg/m3]	mass density, 318.15 K [kg/m3]	refractive index, 288.15 K	refractive index, 298.15 K	refractive index, 308.15 K	refractive index, 318.15 K
[1]	1105.3 ± 0.15	1095.29 ± 0.15	1085.25 ± 0.14	1075.21 ± 0.13	–	–	–	–
[2]	–	–	–	–	1.4793 ± 0.0006	1.4752 ± 0.0006	1.471 ± 0.0006	1.467 ± 0.0006

Oc1ccccc1C=NCCN=Cc1ccccc1O [2,2'-[ethylenebis(nitrilomethylidyne)]diphenol] + ClCCl
mass density [kg/m3], [3]
Details	m1 = 0.0306	m1 = 0.049	m1 = 0.0703	m1 = 0.0903	m1 = 0.1103	m1 = 0.1301	m1 = 0.15	m1 = 0.1702	m1 = 0.1911
283.15 K	1342.32 ± 0.68	1341.5 ± 0.69	1340.58 ± 0.69	1339.65 ± 0.69	1338.77 ± 0.7	1337.88 ± 0.7	1337.01 ± 0.71	1336.07 ± 0.71	1335.14 ± 0.72
288.15 K	1333.32 ± 0.67	1332.54 ± 0.67	1331.67 ± 0.68	1330.82 ± 0.68	1329.93 ± 0.68	1329.12 ± 0.69	1328.26 ± 0.69	1327.34 ± 0.7	1326.47 ± 0.7
293.15 K	1324.26 ± 0.66	1323.56 ± 0.66	1322.69 ± 0.66	1321.91 ± 0.67	1321.06 ± 0.67	1320.31 ± 0.67	1319.5 ± 0.68	1318.65 ± 0.68	1317.78 ± 0.69
298.15 K	1315.18 ± 0.64	1314.5 ± 0.64	1313.71 ± 0.65	1312.95 ± 0.65	1312.16 ± 0.66	1311.43 ± 0.66	1310.67 ± 0.66	1309.84 ± 0.67	1309.07 ± 0.68

Oc1ccccc1C=NCCN=Cc1ccccc1O [2,2'-[ethylenebis(nitrilomethylidyne)]diphenol] + C[S+](C)[O-]
mass density [kg/m3], [3]
Details	m1 = 0.0098	m1 = 0.03	m1 = 0.0502	m1 = 0.0697	m1 = 0.0903	m1 = 0.1097	m1 = 0.13	m1 = 0.1502	m1 = 0.1701	m1 = 0.1893
288.15 K	1105.42 ± 0.44	1105.67 ± 0.44	1105.93 ± 0.44	1106.18 ± 0.45	1106.45 ± 0.45	1106.71 ± 0.45	1106.99 ± 0.46	1107.28 ± 0.46	1107.55 ± 0.46	1107.81 ± 0.47
298.15 K	1095.42 ± 0.42	1095.69 ± 0.42	1095.96 ± 0.42	1096.23 ± 0.42	1096.52 ± 0.43	1096.79 ± 0.43	1097.08 ± 0.43	1097.39 ± 0.44	1097.66 ± 0.44	1097.91 ± 0.44
308.15 K	1085.39 ± 0.39	1085.68 ± 0.39	1085.97 ± 0.4	1086.26 ± 0.4	1086.56 ± 0.4	1086.85 ± 0.41	1087.14 ± 0.41	1087.45 ± 0.41	1087.75 ± 0.42	1088.03 ± 0.42
318.15 K	1075.36 ± 0.37	1075.67 ± 0.37	1075.98 ± 0.37	1076.28 ± 0.38	1076.6 ± 0.38	1076.9 ± 0.38	1077.22 ± 0.39	1077.56 ± 0.39	1077.84 ± 0.39	1078.13 ± 0.4

Oc1ccccc1C=NCCN=Cc1ccccc1O [2,2'-[ethylenebis(nitrilomethylidyne)]diphenol] + ClC(Cl)Cl
mass density [kg/m3], [3]
Details	m1 = 0.0099	m1 = 0.03	m1 = 0.0498	m1 = 0.0702	m1 = 0.0904	m1 = 0.1102	m1 = 0.1336	m1 = 0.1501	m1 = 0.19
283.15 K	1495.46 ± 1.1	1493.53 ± 1.1	1491.63 ± 1.1	1489.69 ± 1.1	1487.79 ± 1.1	1485.95 ± 1.1	1483.73 ± 1.1	1482.28 ± 1.1	1478.69 ± 1.2
288.15 K	1486.15 ± 1.1	1484.27 ± 1.1	1482.44 ± 1.1	1480.56 ± 1.1	1478.71 ± 1.1	1476.92 ± 1.1	1474.75 ± 1.1	1473.37 ± 1.1	1469.85 ± 1.1
293.15 K	1476.77 ± 1	1474.97 ± 1	1473.19 ± 1.1	1471.36 ± 1.1	1469.56 ± 1.1	1467.84 ± 1.1	1465.71 ± 1.1	1464.38 ± 1.1	1460.93 ± 1.1
298.15 K	1467.41 ± 1	1465.66 ± 1	1463.95 ± 1	1462.15 ± 1.1	1460.41 ± 1.1	1458.74 ± 1.1	1456.68 ± 1.1	1455.37 ± 1.1	1452.05 ± 1.1

CC(=O)N(C)C [N,N-dimethylethanamide]
Details	mass density, 288.15 K [kg/m3]	mass density, 298.15 K [kg/m3]	mass density, 308.15 K [kg/m3]	mass density, 318.18 K [kg/m3]	refractive index, 288.15 K	refractive index, 298.15 K	refractive index, 308.15 K	refractive index, 318.18 K
[1]	945.5 ± 0.49	936.28 ± 0.51	927.05 ± 0.53	917.79 ± 0.55	–	–	–	–
[2]	–	–	–	–	1.4382 ± 0.0006	1.4346 ± 0.0006	1.4312 ± 0.0006	1.426 ± 0.0007

ClC(Cl)Cl [trichloromethane]
Details	mass density, 283.15 K [kg/m3]	mass density, 288.15 K [kg/m3]	mass density, 293.15 K [kg/m3]	mass density, 298.15 K [kg/m3]	refractive index, 283.15 K	refractive index, 288.15 K	refractive index, 293.15 K	refractive index, 298.15 K
[1]	1496.43 ± 1.1	1487.09 ± 1.1	1477.68 ± 1	1468.28 ± 1	–	–	–	–
[2]	–	–	–	–	1.45 ± 0.0007	1.4471 ± 0.0007	1.4439 ± 0.0007	1.442 ± 0.0006

ClCCl [dichloromethane]
Details	mass density, 283.15 K [kg/m3]	mass density, 288.15 K [kg/m3]	mass density, 293.15 K [kg/m3]	mass density, 298.15 K [kg/m3]	refractive index, 283.15 K	refractive index, 288.15 K	refractive index, 293.15 K	refractive index, 298.15 K
[1]	1343.65 ± 0.36	1334.57 ± 0.35	1325.43 ± 0.34	1316.27 ± 0.34	–	–	–	–
[2]	–	–	–	–	1.4305 ± 0.0007	1.4276 ± 0.0007	1.4251 ± 0.0007	1.4219 ± 0.0008

Oc1ccccc1C=NCCN=Cc1ccccc1O [2,2'-[ethylenebis(nitrilomethylidyne)]diphenol] + CN(C)C=O
mass density [kg/m3], [3]
Details	m1 = 0.0302	m1 = 0.049	m1 = 0.0701	m1 = 0.0913	m1 = 0.1101	m1 = 0.1238	m1 = 0.1483	m1 = 0.1702	m1 = 0.1886
288.15 K	954.99 ± 0.49	955.87 ± 0.49	956.86 ± 0.5	957.85 ± 0.5	958.72 ± 0.51	959.36 ± 0.52	960.5 ± 0.52	961.48 ± 0.53	962.35 ± 0.54
298.15 K	945.49 ± 0.5	946.39 ± 0.51	947.39 ± 0.52	948.39 ± 0.52	949.27 ± 0.53	949.91 ± 0.53	951.05 ± 0.54	952.08 ± 0.55	952.94 ± 0.55
308.15 K	935.97 ± 0.52	936.88 ± 0.53	937.89 ± 0.53	938.9 ± 0.54	939.79 ± 0.55	940.44 ± 0.55	941.6 ± 0.56	942.63 ± 0.57	943.48 ± 0.57
318.15 K	926.38 ± 0.54	927.29 ± 0.55	928.32 ± 0.55	929.35 ± 0.56	930.25 ± 0.56	930.91 ± 0.57	932.08 ± 0.58	933.14 ± 0.58	933.99 ± 0.59

Oc1ccccc1C=NCCN=Cc1ccccc1O [2,2'-[ethylenebis(nitrilomethylidyne)]diphenol] + CC(=O)N(C)C
mass density [kg/m3], [3]
Details	m1 = 0.0298	m1 = 0.0503	m1 = 0.0704	m1 = 0.0902	m1 = 0.11	m1 = 0.13	m1 = 0.151	m1 = 0.1699	m1 = 0.1898
288.15 K	946.92 ± 0.5	947.9 ± 0.51	948.86 ± 0.51	949.8 ± 0.5	950.76 ± 0.53	951.71 ± 0.53	952.73 ± 0.54	953.61 ± 0.55	954.55 ± 0.55
298.15 K	937.72 ± 0.52	938.72 ± 0.53	939.69 ± 0.53	940.66 ± 0.54	941.6 ± 0.54	942.56 ± 0.55	943.57 ± 0.56	944.49 ± 0.56	945.43 ± 0.57
308.15 K	928.51 ± 0.54	929.52 ± 0.54	930.5 ± 0.55	931.48 ± 0.55	932.43 ± 0.56	933.41 ± 0.57	934.41 ± 0.57	935.35 ± 0.58	936.28 ± 0.59
318.15 K	919.27 ± 0.56	920.29 ± 0.56	921.29 ± 0.57	922.28 ± 0.57	923.25 ± 0.58	924.23 ± 0.58	925.25 ± 0.59	926.19 ± 0.6	927.14 ± 0.6

CN(C)C=O [dimethylformamide]
Details	mass density, 288.15 K [kg/m3]	mass density, 298.15 K [kg/m3]	mass density, 308.15 K [kg/m3]	mass density, 318.15 K [kg/m3]	refractive index, 288.15 K	refractive index, 298.15 K	refractive index, 308.15 K	refractive index, 318.15 K
[1]	953.58 ± 0.48	944.06 ± 0.5	934.52 ± 0.52	924.9 ± 0.54	–	–	–	–
[2]	–	–	–	–	1.431 ± 0.0006	1.4276 ± 0.0006	1.423 ± 0.0007	1.418 ± 0.0007

— the NIST ThermoML archive (doi:10.1021/je100369a)
